Patent US8193192B2, “Heterocyclic FXR binding compounds” (Phenex Pharmaceuticals AG, priority 2006, dated 2012)
Values after ≈ are worked out from the molar mass of the structure shown.

Columns and labels:
[1] = target: T1, human farnesoid X receptor (FXR) alpha ligand binding domain (Homo sapiens, UniProt Q96RI1); test: FRET activity assay (ligand mediated cofactor peptide interaction, LANCE); format: biochemical; settings: FXR-LBD/SRC-1 peptide interaction
T1 construct: made in house; host or cells: E. coli BL21(DE3), vector pDEST15
T1 sequence (Q96RI1 187-472 isoform Q96RI1-2): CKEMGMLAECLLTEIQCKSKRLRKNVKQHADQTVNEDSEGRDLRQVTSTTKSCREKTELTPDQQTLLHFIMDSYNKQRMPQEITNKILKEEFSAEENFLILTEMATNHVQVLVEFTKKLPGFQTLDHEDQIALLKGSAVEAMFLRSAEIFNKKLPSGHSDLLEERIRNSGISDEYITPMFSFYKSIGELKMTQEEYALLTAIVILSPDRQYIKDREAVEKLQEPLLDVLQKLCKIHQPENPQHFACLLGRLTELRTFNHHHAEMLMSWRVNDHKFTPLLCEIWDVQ
Protocol: Determination of a ligand mediated cofactor peptide interaction to quantify ligand binding to the nuclear receptor Farnesoid X Receptor (FXR) was performed as follows:
Preparation of human farnesoid X receptor (FXR) alpha ligand binding domain: The human FXRalpha ligand binding domain (LBD) was expressed in E. coli strain BL21(DE3) as an N-terminally glutathione-S-transferase (GST) tagged fusion protein. The DNA encoding the FXR ligand binding domain was cloned into vector pDEST15 (Invitrogen). Expression was under control of an IPTG inducible T7 promoter. The amino acid boundaries of the ligand binding domain were amino acids 187-472 of Database entry NM_005123 (RefSeq). Expression and purification of the FXR-LBD: An overnight preculture of a transformed E. coli strain was diluted 1:20 in LB-Ampicillin medium and grown at 30° C. to an optical density of OD600=0.4-0.6. Gene expression was then induced by addition of 0.5 mM IPTG. Cells were incubated an additional 6 h at 30° C., 180 rpm. Cells were collected by centrifugation (7000×g, 7 min, room temperature). Per liter of original cell culture, cells were resuspended in 10 ml lysis buffer (50 mM Glucose, 50 mM Tris pH 7.9, 1 mM EDTA and 4 mg/ml lysozyme) and left on ice for 30 min. Cells were then subjected to sonication and cell debris removed via centrifugation (22000×g, 30 min, 4° C.). Per 10 ml of supernatant 0.5 ml prewashed Glutathione 4B sepharose slurry (Qiagen) was added and the suspension kept slowly rotating for 1 h at 4° C. Glutathione 4B sepharose beads were pelleted by centrifugation (2000 g, 15 sec, 4° C.) and washed twice in wash buffer (25 mM Tris, 50 mM KCl, 4 mM MgCl2 and 1 M NaCl). The pellet was resuspended in 3 ml elution buffer per liter of original culture (elution buffer: 20 mM Tris, 60 mM KCl, 5 mM MgCl2 and 80 mM glutathione added immediately prior to use as powder). The suspension was left rotating for 15 min at 4° C., the beads pelleted and eluted again with half the volume of elution buffer than the first time. The eluates were pooled and dialysed overnight in 20 mM Hepes buffer (pH 7.5) containing 60 mM KCl, 5 mM MgCl2 as well as 1 mM dithiothreitol and 10% (v/v) glycerol. The protein was analysed by SDS-Page.
The method measures the ability of putative ligands to modulate the interaction between the purified bacterial expressed FXR ligand binding domain (LBD) and a synthetic biotinylated peptide based on residues 676-700 of SRC-1 (LCD2, 676-700). The sequence of the peptide used was B-[…]-COOH where the N-terminus was biotinylated (B). The ligand binding domain (LBD) of FXR was expressed as fusion protein with GST in BL-21 cells using the vector pDEST15. Cells were lysed by sonication, and the fusion proteins purified over glutathione sepharose (Pharmacia) according to the manufacturers instructions. […] For ease of handling and reduction of background from compound fluorescence LANCE technology makes use of generic fluorophore labels and time resolved detection Assays were done in a final volume of 25 μl in a 384 well plate, in a Tris-based buffer (20 mM Tris-HCl pH 7.5; 60 mM KCl, 5 mM MgCl2; 35 ng/μl BSA), containing 20-60 ng/well recombinantly expressed FXR-LBD fused to GST, 200-600 nM N-terminally biotinylated peptide, representing SRC1 aminoacids 676-700, 200 ng/well Streptavidin-xIAPC conjugate (Prozyme) and 6-10 ng/well Eu W1024-antiGST (Perkin Elmer). […]

[2] = Aqueous solubility assay, Protocol A, nephelometry method; format: physicochemical; settings: PBS with 5% DMSO, aqueous with cosolvent or surfactant or cyclodextrin, kinetic from dmso stock, PBS pH 7.4, 5% DMSO, 23° C.
Protocol: Aqueous solubility of compounds was determined by nephelometry or by shake-flask method as follows:
Protocol A, Nephelometry Method:
Solubility of compounds was measured in PBS (pH 7.4), 5% DMSO at 23° C. Nepheloskan Ascent (Thermo Electron Corporation) nephelometer was used for measurement of light scattering. Tested compounds were dissolved in DMSO to 10 mM. Prior to measurement the compounds were further diluted with PBS in the wells to final compound concentrations of 100, 70, 50, 35, 25, 17, 12 and <10 μg/ml.
The plates were incubated at room temperature for 24 hours to reach equilibrium and the scattered light was measured. Assay validation: Aqueous solubility of acetylsalicylic acid was determined to validate the assay. […] Aqueous solubilities of examples and reference compounds are listed below in Table 2.

Row | SMILES | EC50 [1] [µM] | solubility at 24 h [2] [µM]
1 | Cc1cc(OCc2c(-c3c(Cl)cccc3Cl)noc2C(C)C)cnc1Oc1ccc(C(=O)O)cc1 [Example 3, 4-(5-((3-(2,6-Dichlorophenyl)-5-isopropylisoxazol-4-yl)methoxy)-3-methylpyridin-2-yloxy)benzoic acid] | ≤ 1 | 
2 | CC(C)c1onc(-c2c(Cl)cccc2Cl)c1COc1ccc(Oc2ccc(C(=O)O)cc2)cc1 [Compound A, reference compound] |  | 24 (≈ 12 µg/mL)
